Source: patent US20260146044A1, “AROMATIC COMPOUND, PHARMACEUTICAL COMPOSITION CONTAINING SAME, AND USE THEREOF” (Increland, priority 2023, published 2026)
pIC50: −log10 of the molar value.

Assays:
[1] = test system: secretion levels of IL-6 in PBMC cells; assay: Inhibition of R848-induced IL-6 secretion in PBMC (IL-6 ELISA); type: cell-based; conditions: human PBMC, 20 h compound pre-incubation, 24 h stimulation
Procedure: This experiment was carried out in RPMI 1640 medium containing 10% FBS/1% penicillin/streptomycin, with each of the compounds at an initial test concentration of 1 μM. The compound DMSO was dissolved to form a stock solution, which was gradiently diluted 4-fold with the culture medium to a 4× working solution concentration. The diluted solution was added to a 96-well plate with 50 μL per well. PBMC (batch No.: HPP20062307, Sichuan Hope Bio-tech Co., Ltd.) cells were counted, and diluted to a concentration of 2×10^6/mL. The diluted cells were added to the above compound-containing 96-well plate with 150 μL per well, fully mixed, and incubated in an incubator with 5% CO2 at 37° C. for 20 h. Then, R848 was further added until a final concentration of […], and the cells were further incubated in the incubator with 5% CO2 at 37° C. for additional 24 h. Then, after centrifugation at 2,000 rpm for 4 min, the supernatant was diluted 110×, and detected using an IL-6 ELISA kit. An OD450 value was read, and converted to an IL-6 concentration based on a standard curve, to calculate an IC50 value by fitting a dose-effect curve using GraphPad 5.0.

[2] = microsomes
Procedure: (§1) Blank incubation plates T60 and NCF60 were preheated for 10 min; liver microsome was diluted to 0.56 mg/mL in 100 mM phosphate buffer, 445 μL of the microsome working solution (0.56 mg/mL) was transferred to the preheated “incubation” plates T60 and NCF60, and then the incubation plates T60 and NCF60 were pre-incubated with continuous shaking at 37° C. for 10 min. 54 μL of the liver microsome was transferred to a blank plate, then 6 μL of a NAPDH cofactor was added to the blank plate, and then 180 μL of a quenching solution was added to the blank plate; 5 µL of a composite working solution (100 μM) was added to each of the microsome-containing incubation plates (T60 and NCF60), and the mixture was thoroughly mixed 3 times; 50 μL of a buffer was added to the NCF60 plate, and the mixture was thoroughly mixed 3 times. Timing was started; the plates were incubated with shaking at 37° C. for 60 min; and 180 μL of a quenching solution and 6 μL of the NAPDH cofactor were added to a quenching plate TO. The plates were ensured to be cooled to prevent evaporation. For the T60 plate, the mixture was thoroughly mixed 3 times, and 54 μL of the mixture was immediately transferred to the quenching plate at the time point of 0 min. Then, 44 μL of the NAPDH cofactor was added to the incubation plate (T60). Timing was started; and the plate was incubated with shaking at 37° C. for 60 min. At 5, 15, 30, 45, and 60 min, 180 μL of the quenching solution was added to the quenching plate, mixed once, and then 60 μL of sample was continuously transferred from the plate T60 to the quenching plate at each time point.
(§2) For NCF60, the mixture was mixed once, and at the time point of 60 min, 60 μL of sample was transferred from the NCF60 incubator to the quenching solution-containing quenching plate. All sampling plates were shaken for 10 min, then centrifuged at 4,000 rpm at 4° C. for 20 min. 80 µL of the supernatant was transferred to 240 μL of HPLC water, and mixed using a plate shaker for 10 min.

[3] = microsomes; remark: listed apart in the source
Procedure: as §1, §2

[4] = test system: secretion levels of IL-6 in PBMC cells; assay: Inhibition of LPS+IL-1β-induced IL-6 secretion in PBMC (IL-6 ELISA); type: cell-based; conditions: human PBMC, 24 h compound pre-incubation, 20 h stimulation
Procedure: This experiment was carried out in RPMI 1640 medium containing 10% FBS/1% penicillin/streptomycin, with each of the compounds at an initial test concentration of 1 μM. The compound DMSO was dissolved to form a stock solution, which was gradiently diluted 5-fold with the culture medium to a 4× working solution concentration. The diluted solution was added to a 96-well plate with 50 μL per well. PBMC (batch No.: HPP20062307, Sichuan Hope Bio-tech Co., Ltd.) cells were counted, and diluted to a concentration of 2×10^6/mL. The diluted cells were added to the above compound-containing 96-well plate with 150 μL per well, fully mixed, and incubated in an incubator with 5% CO2 at 37° C. for 24 h. Then, LPS and […] were further added to final concentrations of 10 ng/mL and 20 ng/mL, respectively, and the cells were further incubated in the incubator with 5% CO2 at 37° C. for 20 h. Then, after centrifugation at 2,000 rpm for 4 min, the supernatant was diluted 110×, and detected using an IL-6 ELISA kit. An OD450 value was read, and converted to an IL-6 concentration based on a standard curve, to calculate an IC50 value by fitting a dose-effect curve using GraphPad 5.0.

[5] = Pharmacokinetic experiment on mice (iv and ig); type: in vivo; conditions: mouse, plasma, BALB/c Mice; for Cmax: read-out: Peak plasma concentration Cmax
[6] = Pharmacokinetic experiment on SD rats (iv and ig); type: in vivo; conditions: Sprague-Dawley, rat, plasma; for Cmax: read-out: Peak plasma concentration Cmax
Procedure: Pharmacokinetic experiment on SD rats: in this experiment, two administration modes: oral intragastric administration and tail vein injection were selected. Each of the compounds of the present patented invention was administered at an oral dose of 5 mg/kg at an administration volume of 10 mL/kg. […] Appropriate amounts of Solutol and H2O were proportionally added sequentially, and fully mixed ultrasonically by vortexing, to prepare a clear drug solution at 0.5 mg/mL. ICL004-protodrug was administered by intravenous injection at a dose of 1 mg/kg at an administration volume of 10 mL/kg. Right before use, an appropriate amount of the drug was accurately weighed, to prepare a final volume of 20% PEG 400 and 80% Saline. Appropriate amounts of PEG 400 and Saline were proportionally added sequentially, and fully mixed ultrasonically by vortexing, to prepare a clear drug solution at 0.1 mg/mL.
6 SD rats, each with body weight of 180-220 g, were randomly grouped into 2 groups. After fasting but with free access to water overnight, each […] in the first group was administered by gavage. 200 μL of blood was sampled from its eye socket into an anticoagulant tube respectively at each time point of 15 min, 30 min, 1 h, 2 h, 4 h, 6 h, 8 h, and 24 h after administration. Within one h, each of the blood samples was centrifuged at 10,000 rpm at 4° C. for 20 min (the sample was stored on an ice box prior to the centrifugation), and the supernatant (i.e., the plasma) was stored in a refrigerator at −20° C. for LC-MS/MS analysis. 200 μL of blood was sampled from the eye socket of each […] in the second group into an anticoagulant tube respectively at each time point of 5 min, 15 min, 30 min, 1 h, 2 h, 4 h, 8 h, and 24 h after administration by intravenous injection. Within one h, each of the blood samples was centrifuged at 10,000 rpm at 4° C. for 20 min (the blood sample was stored on an ice box prior to the centrifugation), and the supernatant, i.e., the plasma, was stored in a refrigerator at −20° C. for LC-MS/MS analysis.

[7] = Metabolic stability in human liver microsome; conditions: liver microsomes
Procedure: as §1, §2

[8] = Metabolic stability in mouse liver microsome; conditions: liver microsomes
Procedure: as §1, §2

| SMILES | pIC50 [1] | Human liver microsome (t1/2, min) [2] [min] | Mouse liver microsome (t1/2, min) [3] [min] | pIC50 [4] | bioavailability ([5]; po, ig 3.00 mg/kg vs iv 1.00 mg/kg, read-out: Oral bioavailability Fobs (%)) [%] | AUC ([5]; po, ig, 3.00 mg/kg) [ng·h/mL] | AUC(0-inf) ([5]; po, ig, 3.00 mg/kg) [ng·h/mL] | Cmax ([5]; po, ig, 3.00 mg/kg) [ng/mL] | AUC ([5]; iv, 1.00 mg/kg) [ng·h/mL] | AUC(0-inf) ([5]; iv, 1.00 mg/kg) [ng·h/mL] | Cmax ([5]; iv, 1.00 mg/kg) [ng/mL] | AUC ([6]; iv, 1.00 mg/kg) [ng·h/mL] | AUC(0-inf) ([6]; iv, 1.00 mg/kg) [ng·h/mL] | Cmax ([6]; iv, 1.00 mg/kg) [ng/mL] | bioavailability ([6]; po, ig 5.00 mg/kg vs iv 1.00 mg/kg, read-out: Oral bioavailability Fobs (%)) [%] | AUC ([6]; po, ig, 5.00 mg/kg) [ng·h/mL] | AUC(0-inf) ([6]; po, ig, 5.00 mg/kg) [ng·h/mL] | Cmax ([6]; po, ig, 5.00 mg/kg) [ng/mL] | half-life at 1 µM [7] [h] | half-life at 1 µM [8] [h] |
| --- | --- | --- | --- | --- | --- | --- | --- | --- | --- | --- | --- | --- | --- | --- | --- | --- | --- | --- | --- | --- |
| COc1cc2nn([C@H]3CC[C@H](CN4CCC(c5cccc6c5c(C)nn6C5CCC(=O)NC5=O)CC4)CC3)cc2cc1NC(=O)c1cccc(C(F)(F)F)n1 (stereo partly drawn) [TM-25] | 7.55 | 117.1 | 128.7 |  |  |  |  |  |  |  |  |  |  |  |  |  |  |  |  |  |
| Cc1nn(C2CCC(=O)NC2=O)c2cccc(N3CCN(C[C@H]4CC[C@H](n5cc6cc(NC(=O)c7cnn8cccnc78)c(N7CCOCC7)cc6n5)CC4)CC3)c12 (stereo partly drawn) [TM-33] | 7.88 |  |  | 7.99 | 92.1 | 135000 | 289000 | 12400 | 63100 | 104000 | 6800 | 2250 | 2300 | 530 | 91.9 | 13800 | 10600 | 1100 | 1.3 | 0.782 |
